The text below walks through data of US20140134283A1, “Compositions and Methods for Affecting Mental State and Body Composition” (USPLABS. LLC, priority 2012, published 2014).

For assay [1], the system named is human subjects. The experiment in a line: Initial human study, two male subjects ingesting aegeline for 12-18 weeks, reported effects. It is filed as in vivo. Conditions: for libido: male volunteers.
Assay [2] has as its system human subjects. Kind of assay: Human study, six adult males ingesting 200-800 mg aegeline per day: effects reported by subjects. Type of assay: in vivo. An excerpt: In a separate study, the compound aegeline was orally administered to six human subjects. The volunteer subjects were all non-smoking males between the ages of 24-36.

SMILES strings stand for the structures. Entries after “also recorded” stand apart in the source; their conditions may differ.

As to `COc1ccc(C(O)CNC(=O)/C=C/c2ccccc2)cc1` (stereo not shown) [aegeline, N-[2-hydroxy-2(4-methoxyphenyl)ethyl]-3-phenyl-2-propenamide], in the assay with human subjects [1] (daily dose of 80 mg), the effect on thermogenesis result is “without a very noticeable effect; also recorded: not very noticeable”; the “mental stamina, focus, and mood” value is on record as “effective to increase or improve”. Besides, in the assay with human subjects [1] (daily dose of 120 mg), the “duration of effects on mental stamina, focus, and mood after effect onset” value lay within 8 to 10 h; the “mental stamina, focus, and mood” value is listed as “further increased or improved”; the thermogenic effect entry is given as “noticeable but not very apparent; also recorded: noticeable”. Moreover, the “mental stamina, focus, energy level, mood and thermogenesis” value in the assay with human subjects [1] (dose increase to 150-180 mg) is recorded as “further enhanced or increased”. In addition, the libido result with human subjects [1] (daily dose of 150 mg) is “increased libido; also recorded: effective to increase libido”. For the same compound, the libido result in the assay with human subjects [1] (daily doses lower than 150 mg) is reported as “not at the lower daily doses”. Moreover, the reported effects entry in the assay on human subjects [1] (two male subjects, 20-60 mg per day) was “no immediate apparent effects”. For the same compound, the “mental stamina, focus and concentration, energy level, and mood” value with human subjects [1] (two male subjects, 80-150 mg per day) is “increased or improved”. In the assay with human subjects [2] (200 mg per day), the anabolic effects entry was “became apparent after extended use”, the thermogenic effect result was “very apparent” and the “time of daily administration until anabolic effects became apparent” value is on record as “around 7 days”. For the same compound, the libido result with human subjects [2] (400 mg per day) was “very apparent and prolonged increase”. Further, in the assay on human subjects [2] (daily dose of 200 mg), the effect on libido result was “further increased”; the “effects on mental stamina, energy level, focus, and mood” value is reported as “very apparent”. For the same compound, the anabolic effects result in the assay on human subjects [2] (daily dose of 400 mg) is given as “immediately apparent”. Also, the “dose-dependency of effects on mental stamina, energy level, focus, and mood” value in the assay on human subjects [2] (doses above 400 mg per day) was “not readily observed”. Further, in the assay with human subjects [2] (one subject, daily dose of 800 mg), the “physical performance for exercise and strength training activities” value is “improved physical performance”.
